From ChEMBL document CHEMBL5236606, “Synthesis, Structure-Activity Relationships, and In Vivo Evaluation of Novel C-17 Amine Derivatives Based on GSK3640254 as HIV-1 Maturation Inhibitors with Broad Spectrum Activity” (J Med Chem, 2022)
≈ marks a conversion by molar mass, not a printed value.

Tests used:
[1] = system: Human immunodeficiency virus 1; test: Antiviral activity against wild type HIV-1 NLRepRlucP373S harboring V370A mutant infected in human MT2 cells assessed as inhibition of viral growth measured after 4 to 5 days by Dual luciferase reporter assay; format: functional, organism-based; conditions: Human immunodeficiency virus 1, NLRepRlucP373S
[2] = system: Human immunodeficiency virus 1; test: Antiviral activity against wild type HIV-1 NLRepRlucP373S harboring deltaV370 mutant infected in human MT2 cells assessed as inhibition of viral growth measured after 4 to 5 days by Dual luciferase reporter assay; format: functional, organism-based; conditions: Human immunodeficiency virus 1, NLRepRlucP373S
[3] = system: Human immunodeficiency virus 1; test: Antiviral activity against wild type HIV-1 NLRepRlucP373S infected in human MT2 cells assessed as inhibition of viral growth measured after 4 to 5 days by Dual luciferase reporter assay; format: functional, organism-based; conditions: Human immunodeficiency virus 1, NLRepRlucP373S
[4] = system: Human immunodeficiency virus 1; test: Antiviral activity against wild type HIV-1 NLRepRlucP373S infected in human MT2 cells assessed as inhibition of viral growth measured after 4 to 5 days in presence of 10% FBS and 40% human serum supplemented with 27 mg/mL of human serum albumin by Dual luciferase reporter assay; format: functional, organism-based; conditions: Human immunodeficiency virus 1, NLRepRlucP373S
[5] = system: Human immunodeficiency virus 1; test: Antiviral activity against wild type HIV-1 NLRepRlucP373S harboring T332S/V362I/prR41G mutant infected in human MT2 cells assessed as inhibition of viral growth measured after 4 to 5 days by Dual luciferase reporter assay; format: functional, organism-based; conditions: Human immunodeficiency virus 1, NLRepRlucP373S
[6] = system: Human immunodeficiency virus 1; test: Antiviral activity against wild type HIV-1 NLRepRlucP373S harboring V362I/V370A mutant infected in human MT2 cells assessed as inhibition of viral growth measured after 4 to 5 days by Dual luciferase reporter assay; format: functional, organism-based; conditions: Human immunodeficiency virus 1, NLRepRlucP373S
[7] = Fold resistance, ratio of EC50 for antiviral activity against wild type HIV-1 NLRepRlucP373S infected in human MT2 cells assessed as inhibition of viral growth in presence of 10% FBS and 40% human serum supplemented with 27mg/mL of human serum albumin to EC50 for antiviral activity against wild type HIV-1 NLRepRlucP373S infected in human MT2 cells assessed as inhibition of viral growth; format: functional, Human immunodeficiency virus 1
[8] = Cytotoxicity against human MT2 cells assessed as reduction in cell viability; format: toxicity, cell-based
[9] = system: Human immunodeficiency virus 1; test: Antiviral activity against wild type HIV-1 NLRepRlucP373S harboring A326T/V362I/V370A mutant infected in human MT2 cells assessed as inhibition of viral growth measured after 4 to 5 days by Dual luciferase reporter assay; format: functional, organism-based; conditions: Human immunodeficiency virus 1, NLRepRlucP373S
[10] = system: Human immunodeficiency virus 1; test: Antiviral activity against wild type HIV-1 NLRepRlucP373S harboring R361K/V362I/L363M mutant infected in human MT2 cells assessed as inhibition of viral growth measured after 4 to 5 days by Dual luciferase reporter assay; format: functional, organism-based; conditions: Human immunodeficiency virus 1, NLRepRlucP373S
[11] = Metabolic stability in human liver microsomes assessed as half life at 0.5 uM in presence of NADPH by LC-MS/MS analysis; format: ADME, Microsome
[12] = Metabolic stability in rat liver microsomes assessed as half life at 0.5 uM in presence of NADPH by LC-MS/MS analysis; format: ADME, Microsome
[13] = Metabolic stability in dog liver microsomes assessed as half life at 0.5 uM in presence of NADPH by LC-MS/MS analysis; format: ADME, Canis lupus familiaris, Microsome
Albumin = Albumin (Homo sapiens, UniProt P02768); test: Protein binding in human serum albumin assessed as fraction bound at 53 nM incubated for 1 hrs by ultracentrifugation method; format: ADME, cell-free; conditions: read-out: PPB (converted)
Chain of Albumin (P02768 whole entry): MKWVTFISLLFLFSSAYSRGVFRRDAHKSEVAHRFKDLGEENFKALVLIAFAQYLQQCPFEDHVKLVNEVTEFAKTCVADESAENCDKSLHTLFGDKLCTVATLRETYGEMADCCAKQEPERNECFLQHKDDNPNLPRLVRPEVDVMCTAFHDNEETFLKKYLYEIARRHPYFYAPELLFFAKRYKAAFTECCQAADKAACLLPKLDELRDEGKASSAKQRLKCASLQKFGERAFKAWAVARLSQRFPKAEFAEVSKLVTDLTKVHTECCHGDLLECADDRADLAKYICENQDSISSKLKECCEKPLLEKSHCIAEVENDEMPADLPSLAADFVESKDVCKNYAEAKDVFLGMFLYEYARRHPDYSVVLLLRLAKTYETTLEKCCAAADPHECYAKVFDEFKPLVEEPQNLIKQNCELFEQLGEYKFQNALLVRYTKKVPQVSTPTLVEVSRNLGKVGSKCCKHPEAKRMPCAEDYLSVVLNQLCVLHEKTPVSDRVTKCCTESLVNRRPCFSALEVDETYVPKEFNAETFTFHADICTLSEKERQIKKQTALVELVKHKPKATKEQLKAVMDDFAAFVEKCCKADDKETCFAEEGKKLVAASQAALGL

[14] = Solubility of compound in FaSSIF at pH 6.5; format: ADME
[15] = Solubility of the compound in FeSSIF at pH 5.0; format: ADME
[16] = Clearance in Sprague-Dawley rat at 1 mg/kg, iv by LC-MS/MS analysis; format: ADME, organism-based; conditions: in vivo
[17] = Volume of distribution at steady state in Sprague-Dawley rat at 1 mg/kg, iv by LC-MS/MS analysis; format: ADME, organism-based; conditions: in vivo, read-out: Vdss
[18] = Half life in Sprague-Dawley rat at 1 mg/kg, iv by LC-MS/MS analysis; format: ADME, organism-based; conditions: in vivo
[19] = MRT in Sprague-Dawley rat at 1 mg/kg, iv by LC-MS/MS analysis; format: ADME, organism-based; conditions: in vivo
[20] = AUCt in Sprague-Dawley rat at 5 mg/kg, po by LC-MS/MS analysis; format: ADME, organism-based; design: dose 5 mg/kg, route po; conditions: in vivo
[21] = Cmax in Sprague-Dawley rat at 5 mg/kg, po by LC-MS/MS analysis; format: ADME, organism-based; design: dose 5 mg/kg, route po; conditions: in vivo
[22] = Oral bioavailability in Sprague-Dawley rat at 5 mg/kg by LC-MS/MS analysis; format: ADME, organism-based; conditions: in vivo
[23] = Protein binding in human plasma by ultracentrifugation method; format: ADME, cell-free; conditions: read-out: PPB

Compound	EC50 [1] [nM]	EC50 [2] [nM]	EC50 [3] [nM]	EC50 [4] [nM]	EC50 [5] [nM]	EC50 [6] [nM]	fold change (FC) [7]	CC50 [8] [nM]	EC50 [9] [nM]	EC50 [10] [nM]	half-life at 0.5 µM [11] [h]	half-life at 0.5 µM [12] [h]	half-life at 0.5 µM [13] [h]	fraction unbound at 1 h, 0.053 µM (Albumin)	solubility [14] [µM]	solubility [15] [µM]	clearance [16] [mL/min/kg]	Vd [17] [L/kg]	half-life [18] [h]	MRT [19] [h]	other results
C=C(C)[C@@H]1CC[C@]2(C(=O)NCCO)CC[C@]3(C)[C@H](CC[C@@H]4[C@@]5(C)CC=C(c6ccc(C(=O)O)cc6)C(C)(C)[C@@H]5CC[C@]43C)[C@@H]12	41	> 2000	–	–	–	–	–	–	–	–	–	–	–	–	–	–	–	–	–	–	–
C=C(C)[C@@H]1CC[C@]2(C(=O)NCCOC)CC[C@]3(C)[C@H](CC[C@@H]4[C@@]5(C)CC=C(c6ccc(C(=O)O)cc6)C(C)(C)[C@@H]5CC[C@]43C)[C@@H]12	152	–	–	–	–	–	–	–	–	–	–	–	–	–	–	–	–	–	–	–	–
C=C(C)[C@@H]1CC[C@]2(NCC[C@]3(O)CC[C@](C)(O)CC3)CC[C@]3(C)[C@H](CC[C@@H]4[C@@]5(C)CC=C(C6=CC[C@](CF)(C(=O)O)CC6)C(C)(C)[C@@H]5CC[C@]43C)[C@@H]12	–	6	2.1	13	8.1	3.8	6.3	16000	8	5.1	> 2	> 2	> 2	0.11	< 1	> 480	3.7	0.8	3.9	3.6	AUC(0-t) [20]: 6.19 µM·h; Cmax [21]: 720 nM; bioavailability [22]: 20%
C=C(C)[C@@H]1CC[C@]2(NCCC3(O)COC3)CC[C@]3(C)[C@H](CC[C@@H]4[C@@]5(C)CC=C(C6=CC[C@](CF)(C(=O)O)CC6)C(C)(C)[C@@H]5CC[C@]43C)[C@@H]12	–	5.3	1.7	17	7	4.1	10	18000	6.6	6.1	> 2	1.33	> 2	0.12	4 (≈ 2.66 µg/mL)	32 (≈ 21.3 µg/mL)	6.5	1	3.6	2.7	AUC(0-t) [20]: 27.3 µM·h; Cmax [21]: 3860 nM; bioavailability [22]: 140%
C=C(C)[C@@H]1CC[C@]2(C(=O)O)CC[C@]3(C)[C@H](CC[C@@H]4[C@@]5(C)CC[C@H](OC(=O)CC(C)(C)C(=O)O)C(C)(C)[C@@H]5CC[C@]43C)[C@@H]12 [BEVIRIMAT]	–	–	–	–	–	–	97	–	–	–	–	–	–	–	–	–	–	–	–	–	fraction unbound [23]: < 0.001
